Read-outs that look alike come from different tables or passages of the source.
Legend:
Type in all cases: biochemical
CDK2/cyclin A = target: T1, CDK2/cyclin A (Homo sapiens, UniProt P24941); experiment: Kinase panel assay, CDK2/cyclin A; conditions: read-out: Average % Enzyme Inhibition (Relative to DMSO Controls) at 10 µM
T1 construct: purchased Reaction Biology Co. (Kinase HotSpot service)
Experimental: (§1) The screening of the tested compounds was performed using the Kinase HotSpot^SM service from Reaction Biology Co. (http://www.reactionbiology.com, accessed on 25 September 2021). The HotSpot assay platform contains specific kinase/substrate pairs along with required cofactors. Base reaction buffer: 20 mM Hepes (pH 7.5), 10 mM MgCl2, 1 mM EGTA, 0.02% Brij35, 0.02 mg/mL BSA, 0.1 mM Na3VO4, 2 mM DTT, 1% DMSO. The tested compounds were dissolved in 100% DMSO to specific concentration. The serial dilution was conducted by Integra Viaflo Assist in DMSO (Sigma-Aldrich, Burlington, MA, USA). The reaction mixture containing the examined compound and 33P-ATP was incubated at room temperature for 2 h, and radioactivity was detected by filter-binding method. Kinase activity data were expressed as the percent remaining kinase activity in test samples compared to vehicle (dimethyl sulfoxide) reactions. IC50 values and curve fits were obtained using Prism (GraphPad Software, San Diego, CA, USA).

KDR/VEGFR2 = target: T2, KDR/VEGFR2 (Homo sapiens, UniProt P35968); experiment: Kinase panel assay, KDR/VEGFR2; conditions: KDR/VEGFR2, 10 µM; read-out: Average % Enzyme Inhibition (Relative to DMSO Controls) at 10 µM
T2 construct: purchased Reaction Biology Co. (Kinase HotSpot service)
Experimental: as §1

EphB3 kinase = target: T3, EphB3 kinase (Homo sapiens, UniProt P54753); experiment: EphB3 kinase inhibition assay (HotSpot)
T3 construct: purchased Reaction Biology Co. (Kinase HotSpot service)
T3 sequence (P54753 34-998): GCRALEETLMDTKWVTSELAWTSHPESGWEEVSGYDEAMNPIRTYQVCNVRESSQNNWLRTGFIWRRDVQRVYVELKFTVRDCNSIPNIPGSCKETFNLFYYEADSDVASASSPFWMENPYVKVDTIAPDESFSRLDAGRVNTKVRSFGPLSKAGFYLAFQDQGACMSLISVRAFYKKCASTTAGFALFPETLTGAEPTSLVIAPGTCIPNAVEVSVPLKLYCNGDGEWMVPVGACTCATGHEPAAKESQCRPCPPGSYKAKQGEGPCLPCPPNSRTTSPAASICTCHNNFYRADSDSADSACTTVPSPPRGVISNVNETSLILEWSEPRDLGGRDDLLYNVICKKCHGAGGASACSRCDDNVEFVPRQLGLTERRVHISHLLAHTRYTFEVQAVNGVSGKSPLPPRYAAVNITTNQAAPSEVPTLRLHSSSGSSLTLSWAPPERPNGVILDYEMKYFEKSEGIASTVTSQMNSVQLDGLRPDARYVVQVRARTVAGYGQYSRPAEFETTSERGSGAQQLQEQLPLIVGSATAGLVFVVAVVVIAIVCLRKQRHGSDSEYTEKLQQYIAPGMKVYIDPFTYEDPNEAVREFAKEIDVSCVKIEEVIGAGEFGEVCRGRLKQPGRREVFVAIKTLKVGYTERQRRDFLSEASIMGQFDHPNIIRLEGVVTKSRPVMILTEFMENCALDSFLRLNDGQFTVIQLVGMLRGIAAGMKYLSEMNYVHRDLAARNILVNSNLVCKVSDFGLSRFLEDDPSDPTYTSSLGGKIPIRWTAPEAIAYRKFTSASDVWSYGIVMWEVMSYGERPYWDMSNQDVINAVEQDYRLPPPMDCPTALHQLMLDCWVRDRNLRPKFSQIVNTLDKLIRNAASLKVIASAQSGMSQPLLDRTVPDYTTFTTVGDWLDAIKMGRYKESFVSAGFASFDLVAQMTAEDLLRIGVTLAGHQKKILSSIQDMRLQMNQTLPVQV
Experimental: The synthesized compounds were subjected to in vitro screening over EphB3 kinase. A single dose of 10 µM concentration of each target compound was used in EphB3 kinase inhibition assay, at 10 µM ATP, applying HotSpot^SM technology.
as §1, with “The” for “The screening of the tested compounds was performed using the Kinase HotSpot^SM service from Reaction Biology Co. (http://www.reactionbiology.com, accessed on 25 September 2021). The”

Aurora A = target: T4, Aurora A (Homo sapiens, UniProt O14965); experiment: Kinase panel assay, Aurora A; conditions: read-out: Average % Enzyme Inhibition (Relative to DMSO Controls) at 10 µM
T4 construct: purchased Reaction Biology Co. (Kinase HotSpot service)
T4 sequence (O14965 1-403): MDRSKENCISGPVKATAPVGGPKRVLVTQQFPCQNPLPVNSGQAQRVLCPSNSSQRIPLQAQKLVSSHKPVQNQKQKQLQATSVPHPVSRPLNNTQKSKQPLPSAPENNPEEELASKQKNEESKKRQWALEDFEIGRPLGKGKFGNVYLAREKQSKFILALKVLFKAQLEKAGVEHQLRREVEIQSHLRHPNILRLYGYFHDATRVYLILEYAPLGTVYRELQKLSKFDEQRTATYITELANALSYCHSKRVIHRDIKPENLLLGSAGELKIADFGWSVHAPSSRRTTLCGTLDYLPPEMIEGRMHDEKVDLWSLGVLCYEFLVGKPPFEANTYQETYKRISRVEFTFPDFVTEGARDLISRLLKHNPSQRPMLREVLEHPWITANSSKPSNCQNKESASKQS
Experimental: as §1

T2 sequence (P35968 20-1356): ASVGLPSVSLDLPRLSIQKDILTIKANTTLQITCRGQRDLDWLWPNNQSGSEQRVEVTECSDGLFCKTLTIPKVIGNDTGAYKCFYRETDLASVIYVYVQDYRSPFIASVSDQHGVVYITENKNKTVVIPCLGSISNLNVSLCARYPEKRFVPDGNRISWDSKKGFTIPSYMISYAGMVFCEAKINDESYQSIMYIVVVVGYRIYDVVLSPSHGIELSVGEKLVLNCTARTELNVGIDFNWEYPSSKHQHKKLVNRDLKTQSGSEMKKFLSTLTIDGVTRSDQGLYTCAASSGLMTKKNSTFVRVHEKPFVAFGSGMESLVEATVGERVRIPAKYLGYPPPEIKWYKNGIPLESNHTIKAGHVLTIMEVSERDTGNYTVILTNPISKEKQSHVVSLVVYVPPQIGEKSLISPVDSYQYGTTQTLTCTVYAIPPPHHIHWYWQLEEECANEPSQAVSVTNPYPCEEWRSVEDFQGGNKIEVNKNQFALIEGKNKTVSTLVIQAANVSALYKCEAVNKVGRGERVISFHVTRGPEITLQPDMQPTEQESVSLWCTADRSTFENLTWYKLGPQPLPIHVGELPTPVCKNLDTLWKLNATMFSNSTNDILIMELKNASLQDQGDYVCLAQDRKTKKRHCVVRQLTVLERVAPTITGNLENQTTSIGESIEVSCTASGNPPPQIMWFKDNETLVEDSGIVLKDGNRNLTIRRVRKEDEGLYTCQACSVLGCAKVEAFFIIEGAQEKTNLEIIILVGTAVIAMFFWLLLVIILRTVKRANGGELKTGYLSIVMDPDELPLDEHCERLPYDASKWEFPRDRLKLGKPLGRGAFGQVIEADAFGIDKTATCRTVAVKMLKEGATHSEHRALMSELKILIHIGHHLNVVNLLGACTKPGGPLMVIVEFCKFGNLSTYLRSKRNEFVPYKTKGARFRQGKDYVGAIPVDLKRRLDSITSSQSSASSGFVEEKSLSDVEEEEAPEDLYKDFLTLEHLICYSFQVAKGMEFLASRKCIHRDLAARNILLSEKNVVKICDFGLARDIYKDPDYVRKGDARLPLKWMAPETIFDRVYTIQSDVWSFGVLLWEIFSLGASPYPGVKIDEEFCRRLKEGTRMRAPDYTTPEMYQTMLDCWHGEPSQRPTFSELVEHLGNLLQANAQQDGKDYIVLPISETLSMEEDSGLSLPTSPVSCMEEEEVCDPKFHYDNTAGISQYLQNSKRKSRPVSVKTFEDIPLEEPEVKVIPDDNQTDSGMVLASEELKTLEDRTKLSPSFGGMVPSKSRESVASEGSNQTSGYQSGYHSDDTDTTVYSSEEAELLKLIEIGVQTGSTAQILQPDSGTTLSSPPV

## NS(=O)(=O)c1ccc(Nc2ncnc3ccc(-c4cccc(O)c4)cc23)cc1 [Compound 4c, 4-((6-(3-Hydroxyphenyl)quinazolin-4-yl)amino)benzenesulfonamide]
CDK2/cyclin A
  inhibition at 10 µM: 75 ± 2.07%
KDR/VEGFR2
  inhibition at 10 µM: 47.8%
EphB3 kinase; EphB3 kinase, 10 µM compound, 10 µM ATP, read-out: Average % Enzyme Inhibition at 10 µM (Relative to DMSO Control)
  inhibition at 10 µM: > 93%
EphB3 kinase; EphB3 kinase, dose dependent assay, read-out: IC50
  IC50: 1040 nM
EphB3 kinase; EphB3 kinase, read-out: EC50 of the curve fit printed in Figure 5 (IC50 per legend)
  IC50: 1040 nM
EphB3 kinase; from IC50 values, EphB3 over EphB1
  selectivity for EphB3 over EphB1 isoform: six
Aurora A
  inhibition at 10 µM: 67.9 ± 4.93%
